Source: ChEMBL document CHEMBL2074205, “Inhibitory potencies of 1,4-dihydropyridine calcium antagonists to P-glycoprotein-mediated transport: comparison with the effects on CYP3A4” (Pharm Res, 2000)

How the values were obtained:
Assay type in all cases: functional, cell-based
[1] = biological target: T1, ATP-dependent translocase ABCB1 (Homo sapiens, UniProt P08183); experiment: TP_TRANSPORTER: inhibition of Daunorubicin transepithelial transport (basal to apical) (Daunorubicin: 0.035 uM) in MDR1-expressing LLC-PK1 cells
[2] = biological target: T1, ATP-dependent translocase ABCB1; experiment: TP_TRANSPORTER: inhibition of Daunorubicin transepithelial transport (basal to apical), (+)-efonidipine (Daunorubicin: 0.035 uM) in MDR1-expressing LLC-PK1 cells
[3] = biological target: T1, ATP-dependent translocase ABCB1; experiment: TP_TRANSPORTER: inhibition of Daunorubicin transepithelial transport (basal to apical), (-)-efonidipine (Daunorubicin: 0.035 uM) in MDR1-expressing LLC-PK1 cells

T1 sequence (P08183 whole entry): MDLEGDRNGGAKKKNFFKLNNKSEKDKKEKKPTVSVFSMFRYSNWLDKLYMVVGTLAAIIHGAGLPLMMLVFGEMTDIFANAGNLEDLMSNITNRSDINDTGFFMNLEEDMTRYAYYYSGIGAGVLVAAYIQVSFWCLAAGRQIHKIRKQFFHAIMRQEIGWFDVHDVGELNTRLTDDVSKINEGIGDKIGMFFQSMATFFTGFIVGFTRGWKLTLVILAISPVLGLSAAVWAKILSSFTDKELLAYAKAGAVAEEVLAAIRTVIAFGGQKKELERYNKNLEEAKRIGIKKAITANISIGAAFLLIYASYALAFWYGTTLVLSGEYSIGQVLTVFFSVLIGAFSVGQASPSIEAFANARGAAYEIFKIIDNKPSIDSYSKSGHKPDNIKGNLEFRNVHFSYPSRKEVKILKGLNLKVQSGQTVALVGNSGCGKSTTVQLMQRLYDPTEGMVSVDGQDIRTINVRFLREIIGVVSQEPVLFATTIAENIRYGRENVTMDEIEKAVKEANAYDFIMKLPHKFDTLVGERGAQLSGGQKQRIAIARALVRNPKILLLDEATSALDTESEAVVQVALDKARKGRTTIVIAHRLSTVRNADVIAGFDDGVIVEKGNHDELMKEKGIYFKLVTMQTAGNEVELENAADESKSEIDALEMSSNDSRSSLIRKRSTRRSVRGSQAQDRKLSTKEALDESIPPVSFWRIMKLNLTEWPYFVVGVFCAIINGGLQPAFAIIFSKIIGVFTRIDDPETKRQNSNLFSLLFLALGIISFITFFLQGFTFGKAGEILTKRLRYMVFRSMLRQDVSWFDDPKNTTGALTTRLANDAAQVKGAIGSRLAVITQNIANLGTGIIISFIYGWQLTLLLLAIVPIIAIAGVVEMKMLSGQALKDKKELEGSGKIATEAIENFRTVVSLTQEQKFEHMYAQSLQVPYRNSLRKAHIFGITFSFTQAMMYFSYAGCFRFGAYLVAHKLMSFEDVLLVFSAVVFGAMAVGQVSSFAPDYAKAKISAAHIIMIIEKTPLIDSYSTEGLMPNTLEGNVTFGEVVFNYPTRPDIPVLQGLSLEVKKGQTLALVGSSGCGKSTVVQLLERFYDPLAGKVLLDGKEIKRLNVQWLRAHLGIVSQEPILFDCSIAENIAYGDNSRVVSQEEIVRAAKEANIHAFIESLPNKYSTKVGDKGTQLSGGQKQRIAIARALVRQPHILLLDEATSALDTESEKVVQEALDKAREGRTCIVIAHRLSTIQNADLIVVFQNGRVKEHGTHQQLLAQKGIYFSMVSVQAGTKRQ

| SMILES | IC50 [1] [µM] | IC50 [2] [µM] | IC50 [3] [µM] |
| --- | --- | --- | --- |
| CCOC(=O)C1=C(COCCN)NC(C)=C(C(=O)OC)C1c1ccccc1Cl (stereo unspecified) [AMLODIPINE] | 22 |  |  |
| COC(=O)C1=C(C)NC(C)=C(C(=O)O[C@@H]2CCCN(Cc3ccccc3)C2)C1c1cccc([N+](=O)[O-])c1 (stereo partly specified) | 9.5 |  |  |
| CC1=C(C(=O)OCCN(Cc2ccccc2)c2ccccc2)C(c2cccc([N+](=O)[O-])c2)C(P2(=O)OCC(C)(C)CO2)=C(C)N1 (stereo unspecified) [EFONIDIPINE] |  | 20.6 | 17.3 |

Next, values leading:

| IC50 [1] [µM] | IC50 [2] [µM] | IC50 [3] [µM] | SMILES |
| --- | --- | --- | --- |
| 4.6 |  |  | COC(=O)C1=C(C)NC(C)=C(C(=O)OCCN2CCN(C(c3ccccc3)c3ccccc3)CC2)C1c1cccc([N+](=O)[O-])c1 (stereo unspecified) [MANIDIPINE 6300] |
| 8.6 |  |  | COC(=O)C1=C(C)NC(C)=C(C(=O)O[C@H]2CCN(Cc3ccccc3)C2)[C@H]1c1cccc([N+](=O)[O-])c1 [BARNIDIPINE] |
